Measurements as given in the CheMixHub ionic liquid set.
± gives the uncertainty stated by the source.

Assay: xn = mol fraction of the nth substance listed
Conditions: 100 kPa

CC[n+]1ccn(C)c1.O=S(=O)([O-])C(F)(F)F + CS(C)=O + CC#N
viscosity [mPa·s]
Conditions	298.15 K	303.15 K	308.15 K	313.15 K	318.15 K	323.15 K
x1 = 0.1068, x2 = 0.8932	3.7 ± 1.1	–	–	–	–	–
x1 = 0.2015, x2 = 0.7985	5.3 ± 1.6	4.7 ± 1.4	–	3.8 ± 1.1	3.4 ± 1	–
x1 = 0.2065, x2 = 0.6555	3.5 ± 1.1	–	–	–	–	–
x1 = 0.2333, x2 = 0.6152	3.7 ± 1.1	–	–	–	–	–
x1 = 0.2695, x2 = 0.5629	4.1 ± 1.2	3.7 ± 1.1	3.4 ± 1	–	–	–
x1 = 0.3077, x2 = 0.6923	7.9 ± 2.4	–	6.1 ± 1.8	5.4 ± 1.6	4.9 ± 1.5	–
x1 = 0.3091, x2 = 0.5059	4.6 ± 1.4	4.2 ± 1.3	3.9 ± 1.2	3.5 ± 1.1	–	–
x1 = 0.3343, x2 = 0.4656	5.1 ± 1.5	4.6 ± 1.4	–	3.8 ± 1.1	3.5 ± 1	–
x1 = 0.361, x2 = 0.4229	5.6 ± 1.7	5 ± 1.5	4.6 ± 1.4	4.2 ± 1.3	3.8 ± 1.1	–
x1 = 0.3948, x2 = 0	4.5 ± 1.4	4.1 ± 1.2	3.8 ± 1.1	3.5 ± 1	–	–
x1 = 0.4023, x2 = 0.5977	–	–	8.9 ± 2.7	7.8 ± 2.4	7 ± 2.1	6.2 ± 1.9
x1 = 0.4096, x2 = 0.3523	6.7 ± 2	6 ± 1.8	5.4 ± 1.6	4.9 ± 1.5	4.4 ± 1.3	4.1 ± 1.2
x1 = 0.4353, x2 = 0.3096	7.4 ± 2.2	6.6 ± 2	–	5.3 ± 1.6	4.8 ± 1.4	–
x1 = 0.4741, x2 = 0.2498	8.5 ± 2.6	7.6 ± 2.3	6.7 ± 2	6 ± 1.8	5.5 ± 1.6	5 ± 1.5
x1 = 0.4933, x2 = 0.5067	–	–	–	–	9.3 ± 2.8	8.2 ± 2.5
x1 = 0.498, x2 = 0	7.4 ± 2.2	6.6 ± 2	6 ± 1.8	5.4 ± 1.6	4.9 ± 1.5	–
x1 = 0.5094, x2 = 0.1935	9.7 ± 2.9	8.6 ± 2.6	7.6 ± 2.3	6.8 ± 2.1	6.1 ± 1.8	5.5 ± 1.7
x1 = 0.5368, x2 = 0.1703	–	9.5 ± 2.8	8.4 ± 2.5	7.5 ± 2.2	6.7 ± 2	6 ± 1.8
x1 = 0.5656, x2 = 0.1458	–	–	9.2 ± 2.8	8.2 ± 2.5	7.3 ± 2.2	6.6 ± 2
x1 = 0.595, x2 = 0	–	9.5 ± 2.8	8.4 ± 2.5	7.5 ± 2.3	6.7 ± 2	6 ± 1.8
x1 = 0.5961, x2 = 0.12	–	–	–	9 ± 2.7	8 ± 2.4	7.2 ± 2.2
x1 = 0.6284, x2 = 0.0927	–	–	–	–	8.9 ± 2.7	7.9 ± 2.4
x1 = 0.6565, x2 = 0.0845	–	–	–	–	9.7 ± 2.9	8.6 ± 2.6
x1 = 0.686, x2 = 0.076	–	–	–	–	–	9.4 ± 2.8
x1 = 0.6936, x2 = 0	–	–	–	–	9.5 ± 2.8	8.3 ± 2.5
x1 = 0.7058, x2 = 0.0663	–	–	–	–	–	9.9 ± 3
x1 = 0.9005, x2 = 0	34 ± 10	–	–	–	–	–
x1 = 0.9008, x2 = 0.0992	39 ± 12	–	–	–	–	–
x1 = 1, x2 = 0	46 ± 14	38 ± 11	–	–	–	–
